The values below come from patent publication US11590116B2 (THERAVANCE BIOPHARMA R&D IP, LLC, priority 2019, dated 2023).

The target in test [1] is T1, recombinant human ALK5 (TGF-βR1) protein (Homo sapiens, UniProt P36897).
T1 construct: purchased Life Technologies PR9075A
T1 sequence (P36897 34-503): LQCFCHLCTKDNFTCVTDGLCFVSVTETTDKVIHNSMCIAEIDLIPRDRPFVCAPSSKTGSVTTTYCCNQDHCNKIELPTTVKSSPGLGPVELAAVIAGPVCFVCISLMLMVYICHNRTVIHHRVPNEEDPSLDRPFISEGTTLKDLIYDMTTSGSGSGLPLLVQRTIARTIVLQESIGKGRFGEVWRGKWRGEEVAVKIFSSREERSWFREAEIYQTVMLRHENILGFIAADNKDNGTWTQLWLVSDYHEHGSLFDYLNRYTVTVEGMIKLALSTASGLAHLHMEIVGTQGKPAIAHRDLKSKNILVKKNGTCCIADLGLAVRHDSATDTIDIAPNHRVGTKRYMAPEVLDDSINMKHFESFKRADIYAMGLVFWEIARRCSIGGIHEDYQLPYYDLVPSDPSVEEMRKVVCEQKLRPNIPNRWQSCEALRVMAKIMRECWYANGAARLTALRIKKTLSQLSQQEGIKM
As to the kind of experiment: Biochemical ALK5 (TGF-βR1) assay to measure pKi (LANCE Ultra ULight kinase assay). The note with it: apparent pKi from pIC50 by Cheng-Prusoff, read-out: ALK5 pKi (converted). The gist of the method: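 Compounds (10 μM to 25 pM) were preincubated 60 min at room temperature with enzyme, then reactions were started with ATP (125 μM stock, 5× final) and run 60 min at 37 °C. EDTA-containing Eu-anti-phospho-Topo IIα (Thr1342) antibody stopped the reaction; TR-FRET read at 665 nm. pIC50 from 4-parameter fit, converted to pKi via Cheng-Prusoff.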
(TR-FRET usually uses a lanthanide donor and a delayed reading to cut background.)

Test [2] concerns TGF-β-stimulated SMAD3 phosphorylation in BEAS-2B cells. Kind of test: Cellular ALK5 potency assay, inhibition of TGF-β stimulated pSMAD3 formation in BEAS-2B cells. Format: cell-based. The conditions noted are these: Homo sapiens; inhibition of TGF-β stimulated pSMAD3 formation, BEAS-2B cells; read-out: BEAS2B pIC50 (converted). The method in brief:
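BEAS-2B human lung epithelial cells, seeded overnight, were pre-treated with compound in HBSS/25 mM HEPES/1% BSA for 1 h at 37 °C, then stimulated with TGF-β (final 10 ng/mL) for 30 min. Lysates were assayed for pSMAD3 by AlphaLISA; pIC50 came from dose-dependent signal change versus TGF-β-stimulated untreated cells.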

Take `Cc1cccc(-c2[nH]cnc2-c2ccc3ncc(C(=O)OC[C@H]4CC[C@H](N)CC4)cc3c2)n1` [Compound 765, (4-aminocyclohexyl)methyl 6-[5-(6-methyl-2-pyridyl)-1H-imidazol-4-yl]quinoline-3-carboxylate]: the Ki in test [1] was 0.0398 to 0.316 nM. Further, the IC50 in test [2] was 25.1 to 158 nM.
In the same order, the values of `Cc1cccc(-c2[nH]cnc2-c2ccc3ncc(-c4cc(C(=O)O[C@@H]5CCNC5)cs4)cc3c2)n1` [Compound 1105, [(3R)-pyrrolidin-3-yl] 5-[6-[5-(6-methyl-2-pyridyl)-1H-imidazol-4-yl]-3-quinolyl]thiophene-3-carboxylate] are less than 0.0316 nM and 25.1 to 158 nM.
In the same order, the values of `Cc1cccc(-c2[nH]cnc2-c2ccc3ncc(-c4cc(C(=O)OCCN5CCNCC5)ccn4)cc3c2)n1` [Compound 1123, 2-piperazin-1-ylethyl 2-[6-[5-(6-methyl-2-pyridyl)-1H-imidazol-4-yl]-3-quinolyl]pyridine-4-carboxylate] are 0.0398 to 0.316 nM and 25.1 to 158 nM.
The matching figures for `Cc1cccc(-c2[nH]ncc2-c2ccc3nccc(C(=O)OCCN4C[C@@H](C)N[C@@H](C)C4)c3c2)n1` [Compound 1176, 2-[(3R,5S)-3,5-dimethylpiperazin-1-yl]ethyl 6-[5-(6-methyl-2-pyridyl)-1H-pyrazol-4-yl]quinoline-4-carboxylate]: 0.0398 to 0.316 nM and 25.1 to 158 nM.
As for `Cc1cccc(-c2[nH]cnc2-c2ccc3ncc(N4CCN[C@H](C(=O)O)C4)cc3c2)n1` [Compound 682, (2S)-4-[6-[5-(6-methyl-2-pyridyl)-1H-imidazol-4-yl]-3-quinolyl]piperazine-2-carboxylic acid], the Ki in test [1] is 0.398 to 3.16 nM. In test [2], the IC50 is 200 to 1260 nM.
The matching figures for `Cc1cccc(-c2n[nH]cc2-c2ccc3ncc(-c4coc(CCN5CCNCC5)n4)cc3n2)n1` [Compound 697, 4-[6-[3-(6-methyl-2-pyridyl)-1H-pyrazol-4-yl]-1,5-naphthyridin-3-yl]-2-(2-piperazin-1-ylethyl)oxazole]: 0.0398 to 0.316 nM and 200 to 1260 nM.
The matching figures for `Cc1cccc(-c2n[nH]cc2-c2ccc3ncc(N4CCCCC4)cc3n2)n1` [Compound 22, 2-[3-(6-methyl-2-pyridyl)-1H-pyrazol-4-yl]-7-(1-piperidyl)-1,5-naphthyridine]: 0.0398 to 0.316 nM and 25.1 to 158 nM.
In the case of `Cc1nc(-c2nc3ccccn3c2-c2ccc3ncc(N4CCC(N(C)C)C4)cc3c2)ccc1F` (racemic) [Compound 544, rac-(3S)-1-[6-[2-(5-fluoro-6-methyl-2-pyridyl)imidazo[1,2-a]pyridin-3-yl]-3-quinolyl]-N,N-dimethyl-pyrrolidin-3-amine], the Ki in test [1] is 0.0398 to 0.316 nM. For the same compound, the IC50 in test [2] is 25.1 to 158 nM.
The matching figures for `Cc1nc(-c2n[nH]cc2-c2ccc3ncc(N4CCNCC4)cc3n2)ccc1F` [Compound 661, 2-[3-(5-fluoro-6-methyl-2-pyridyl)-1H-pyrazol-4-yl]-7-piperazin-1-yl-1,5-naphthyridine]: 0.0398 to 0.316 nM and less than 20 nM.
Take `Cc1cccc(-c2n[nH]cc2-c2ccc3ncc(-c4cn(-c5ccccc5)nn4)cc3n2)n1` [Compound 111, 2-[3-(6-methyl-2-pyridyl)-1H-pyrazol-4-yl]-7-(1-phenyltriazol-4-yl)-1,5-naphthyridine]: in test [1], the Ki was 0.0398 to 0.316 nM. Further, the IC50 in test [2] was less than 20 nM.
The matching figures for `Cc1cccc(-c2[nH]cnc2-c2ccc3ncc(C4=CCC(C(=O)OC5CCNCC5)CC4)cc3c2)n1` (centres unmarked) [Compound 444, 4-piperidyl 4-[6-[5-(6-methyl-2-pyridyl)-1H-imidazol-4-yl]-3-quinolyl]cyclohex-3-ene-1-carboxylate]: 0.0398 to 0.316 nM and 25.1 to 158 nM.
In the same order, the values of `Cc1cccc(-c2[nH]cnc2-c2ccc3ncc(-c4ccc(C(=O)OC[C@@H]5CCCCN5)cn4)cc3c2)n1` [Compound 1165, [(2S)-2-piperidyl]methyl 6-[6-[5-(6-methyl-2-pyridyl)-1H-imidazol-4-yl]-3-quinolyl]pyridine-3-carboxylate] are 0.0398 to 0.316 nM and 25.1 to 158 nM.
In the same order, the values of `Cc1cccc(-c2n[nH]cc2-c2ccc3ncc(N4CCC(N5CCCC5)CC4)cc3n2)n1` [Compound 335, 2-(3-(6-methylpyridin-2-yl)-1H-pyrazol-4-yl)-7-(4-(pyrrolidin-1-yl)piperidin-1-yl)-1,5-naphthyridine] are less than 0.0316 nM and 25.1 to 158 nM.
As for `Cc1cccc(-c2[nH]cnc2-c2ccc3ncc(-c4cccc(C(=O)OCC5CNC5)c4)cc3c2)n1` [Compound 231, azetidin-3-ylmethyl 3-[6-[5-(6-methyl-2-pyridyl)-1H-imidazol-4-yl]-3-quinolyl]benzoate], the Ki in test [1] is 0.0398 to 0.316 nM. Moreover, the IC50 in test [2] is 25.1 to 158 nM.
Turning to `Cc1cccc(-c2n[nH]cc2-c2ccc3ncc(-c4cnn(CC(=O)O)c4)cc3n2)n1` [Compound 240, 2-[4-[6-[3-(6-methyl-2-pyridyl)-1H-pyrazol-4-yl]-1,5-naphthyridin-3-yl]pyrazol-1-yl]acetic acid], the Ki in test [1] is less than 0.0316 nM. Also, the IC50 in test [2] is 25.1 to 158 nM.
For the compound `CNCCN(C)C1CCN(c2cnc3ccc(-c4c[nH]nc4-c4cccc(C)n4)nc3c2)CC1` [Compound 18, N,N′-dimethyl-N′-[1-[6-[3-(6-methyl-2-pyridyl)-1H-pyrazol-4-yl]-1,5-naphthyridin-3-yl]-4-piperidyl]ethane-1,2-diamine], the Ki in test [1] was 0.0398 to 0.316 nM. Also, the IC50 in test [2] is 200 to 1260 nM.
The matching figures for `Cc1cccc(-c2n[nH]cc2-c2ccc3ncc(CNCCN4CCOCC4)cc3n2)n1` [Compound 633, N-[[6-[3-(6-methyl-2-pyridyl)-1H-pyrazol-4-yl]-1,5-naphthyridin-3-yl]methyl]-2-morpholino-ethanamine]: 0.398 to 3.16 nM and 25.1 to 158 nM.
Consider `Cc1cccc(-c2[nH]cnc2-c2ccc3ncc(-c4cnc5c(c4)CNC5)cc3c2)n1` [Compound 443, 3-(6,7-dihydro-5H-pyrrolo[3,4-b]pyridin-3-yl)-6-[5-(6-methyl-2-pyridyl)-1H-imidazol-4-yl]quinoline], for which the Ki in test [1] was 0.0398 to 0.316 nM. For the same compound, the IC50 in test [2] was 25.1 to 158 nM.
In the same order, the values of `CNC(=O)[C@@H]1CN(c2cnc3ccc(-c4nc[nH]c4-c4cccc(C)n4)cc3c2)CCN1` [Compound 384, (2S)-N-methyl-4-[6-[5-(6-methyl-2-pyridyl)-1H-imidazol-4-yl]-3-quinolyl]piperazine-2-carboxamide] are 0.0398 to 0.316 nM and 200 to 1260 nM.
In the same order, the values of `Cc1cccc(-c2[nH]ncc2-c2ccc3ncc(C(=O)OCCCC4CCNCC4)cc3c2)n1` [Compound 1182, 3-(4-piperidyl)propyl 6-[5-(6-methyl-2-pyridyl)-1H-pyrazol-4-yl]quinoline-3-carboxylate] are 0.0398 to 0.316 nM and 25.1 to 158 nM.
In the same order, the values of `Cc1cccc(-c2[nH]cnc2-c2ccc3ncc(NC(=O)CC4CNC4)cc3c2)n1` [Compound 255, 2-(azetidin-3-yl)-N-[6-[5-(6-methyl-2-pyridyl)-1H-imidazol-4-yl]-3-quinolyl]acetamide] are 0.0398 to 0.316 nM and 200 to 1260 nM.
In the case of `Cc1cccc(-c2[nH]cnc2-c2ccc3ncc(-c4cnc5c(c4)CCC5N)cc3c2)n1` (centres unmarked) [Compound 734, 3-[6-[5-(6-methyl-2-pyridyl)-1H-imidazol-4-yl]-3-quinolyl]-6,7-dihydro-5H-cyclopenta[b]pyridin-7-amine], the Ki in test [1] was 0.0398 to 0.316 nM. Further, the IC50 in test [2] was 25.1 to 158 nM.
